Non-standard residues stand in square brackets, D forms with d. Residues, ends and D or L forms follow the SMILES beside them. No end group written: not given here. pGlu = O=C1CC[C@@H](C(=O)O)N1
System: PBL migration across TNF-α/IFN-γ-stimulated endothelial cells (HDBEC)
Conditions: for IC50: 24 h

Compound	effect on lymphocyte migration in vitro	IC50 [nM]
SVTEQGA	full activity	
CC(C)[C@@H](NC(=O)[C@H](N)[C@H](C)O)C(=O)N[C@H](CO)C(N)=O [tvs-NH2] (H-[dT]-[dV]-[dS]-NH2)		0.024
SVTEQGAELSNEER [PEPITEM]		0.045
C[C@H](NC(=O)CNC(=O)[C@@H]1CCC(=O)N1)C(N)=O [[PyroGlu]-GA-NH2] ([pGlu]-Gly-Ala-NH2)		0.0032

Source: paper doi:10.1101/2024.10.14.618151v1 (bioRxiv, 2024)
